≈ marks a conversion by molar mass, not a printed value. Where two headings read alike, the source gives them in different places. Numbered stars: 1 amine (or outer) side, 2 acyl side, 3 side chain; on linkers, the order of the positions; unused ones are H or OH. Square brackets hold non-standard residues; d marks the D form. Peptide text beside a SMILES is read from it. * marks the point of attachment. X13 = O=C([C@H](Cc1nc2ccc(F)cc2s1)N[*:1])[*:2]; X14 = COc1ccc(C[C@H](N[*:1])C(=O)[*:2])cc1Cl; Ala(thiazol-2-yl) = N[C@@H](Cc1nccs1)C(=O)O; NH(1-CH2NMe2-cBu) = CN(C)CC1(N*)CCC1; dGly(nOct) = CCCCCCCC[C@@H](N)C(=O)O; Gly(octyl) = CCCCCCCC[C@H](N)C(=O)O; Oxazole4CO(2-Me) = Cc1nc(C(=O)*)co1; d(hCha) = N[C@H](CCC1CCCCC1)C(=O)O; Benzoyl(4-F) = O=C(c1ccc(F)cc1)*; hCha = N[C@@H](CCC1CCCCC1)C(=O)O; NHCH2CH2NHMe = CNCCN*; Aib = CC(C)(N)C(=O)O; X1 = COCCN(CCN*)CCOC; βAla = NCCC(=O)O

Data set [1] is described as follows: Cytotoxicity assay (Alamar Blue) on L6-cells. It is filed as cell-based, rat. The procedure: Tests were done in triplicate.
The plates were incubated for additional 2 h.
Background: Resazurin is reduced to fluorescent resorufin, in cell work by metabolically active cells.

Data set [2] has as its system intracellular Leishmania donovani MHOM-ET-67/L82 amastigotes. Put plainly: In vitro antiprotozoal assay, intracellular amastigotes. Particulars: intracellular amastigotes; read-out: L.don.InMac IC50. Format: cell-based.
Description: (§1) The testing of the inventive compounds against Leishmania donovani (strain MHOM/ET/67/L82) was performed in 96 well plates at concentrations in serial dilutions. Tests were done in triplicate.
Data set [3] deals with axenic Leishmania donovani MHOM-ET-67/L82 amastigotes. Briefly: In vitro antiprotozoal assay, axenic amastigotes. It is filed as cell-based.
Description: as §1
For data set [4], the system named is Staphylococcus aureus ATCC BAA-1556, USA300 MRSA. Put plainly: microbe, parasite or virus in culture. Format: cell-based. Conditions: ATCC BAA-1556. The procedure: Pre-formulated compound solution was diluted in 100% DMSO to prepare a 1.6 mg/mL working stock solution. […] The concentration range was 0.032 to 32 μg/mL.
Data set [5] relates to Staphylococcus aureus ATCC 43300, MRSA. It is filed as cell-based. Conditions: ATCC 43300, 18 h. The procedure:
The antibacterial activity of inventive compounds was evaluated in duplicate in a further Minimum Inhibitory Concentration (MIC) assay.
Bacteria were cultured in Cation-adjusted Mueller Hinton broth (CAMHB) at 37° C. overnight. A sample of each culture was then diluted 40-fold in fresh broth and incubated at 37° C. for 1.5-3 h. The resultant mid-log phase cultures were diluted (CFU/mL measured by OD600), then added to each well of the compound containing plates, giving a cell density of 5×10^5 CFU/mL and a total volume of 50 μL. All the plates were covered and incubated at 37° C. for 18 h without shaking.
Samples were prepared in DMSO and serially diluted 2 fold 8 times. Each sample concentration was prepared in 384-well plates, non-binding surface plate (NBS; Corning 3640) for the bacterial strain ATCC 43300, MRSA. The final DMSO concentration was at a maximum of 0.5%.
Inhibition of bacterial growth was determined measuring absorbance at 600 nm (OD600), using a Tecan M1000 Pro monochromator plate reader. The percentage of growth inhibition was calculated for each well, using the negative control (media only) and positive control (bacteria without inhibitors) on the same plate as references. […] Vancomycin was used as positive bacterial inhibitor standards.

The mark [6] stands for this setting: axenic amastigotes, read-out: L.don.ax. IC50.

In general, IC50 refers to the concentration that inhibits the measured activity by half. As for `CCCCCCCC[C@@H](NC(=O)[C@@H]1CCCN1C(=O)c1coc(C)n1)C(=O)N[C@@H](CC(C)C)C(=O)NC(C)(C)C(=O)N[C@@H](CC(C)C)C(=O)N[C@@H](CC(C)C)C(=O)NC(C)(C)C(=O)NC(C)(C)C(=O)NCCC(=O)NC1(CN(C)C)CCC1` [Compound 6789, (2R)-N-[(1S)-1-[(1-{[(1S)-1-{[(1S)-1-({1-[(1-{[2-({1-[(dimethylamino)methyl]cyclobutyl}carbamoyl)ethyl]carbamoyl}-1-methylethyl)carbamoyl]-1-methylethyl}carbamoyl)-3-methylbutyl]carbamoyl}-3-methylbutyl]carbamoyl}-1-methylethyl)carbamoyl]-3-methylbutyl]-2-{[(2S)-1-(2-methyl-1,3-oxazole-4-carbonyl)pyrrolidin-2-yl]formamido}decanamide] ({Oxazole4CO(2-Me)}-P[dGly(nOct)]L[Aib]LL[Aib][Aib][βAla]-{NH(1-CH2NMe2-cBu)}), in data set [1] (rat), it took 4280 nM to reach half-maximal inhibition (IC50 at 68 h). Besides, the IC50 stood at 65 nM in data set [2] and 3.4 nM in data set [3] (setting [6]). Moreover, the “MIC” value in data set [4] amounted to 16 µg/mL (≈ 13.7 µM).

For `COCCN(CCNC(=O)CCNC(=O)C(C)(C)NC(=O)C(C)(C)NC(=O)[C@H](CC(C)C)NC(=O)[C@H](CC(C)C)NC(=O)C(C)(C)NC(=O)[C@H](CC(C)C)NC(=O)[C@H](CCC1CCCCC1)NC(=O)[C@@H]1CCCN1C(=O)c1coc(C)n1)CCOC` [Compound 6791, (2S)-N-(1-{[(1S)-1-{[(1S)-1-({1-[(1-{[2-({2-[bis(2-methoxyethyl)amino]ethyl}carbamoyl)ethyl]carbamoyl}-1-methylethyl)carbamoyl]-1-methylethyl}carbamoyl)-3-methylbutyl]carbamoyl}-3-methylbutyl]carbamoyl}-1-methylethyl)-2-[(2S)-4-cyclohexyl-2-{[(2S)-1-(2-methyl-1,3-oxazole-4-carbonyl)pyrrolidin-2-yl]formamido}butanamido]-4-methylpentanamide] ({Oxazole4CO(2-Me)}-P[hCha]L[Aib]LL[Aib][Aib][βAla]-X1), the 50% inhibitory concentration (IC50) at 68 h in data set [1] (rat) was 8230 nM. The IC50 in data set [2] amounted to 179 nM; in data set [3] (setting [6]), 2.1 nM. Also, the “MIC” value in data set [4] was 32 µg/mL (≈ 26.3 µM).

For `COc1ccc(C[C@H](NC(=O)[C@@H]2CCCN2C(=O)c2coc(C)n2)C(=O)N[C@@H](CC(C)C)C(=O)NC(C)(C)C(=O)N[C@@H](CC(C)C)C(=O)N[C@@H](CC(C)C)C(=O)NC(C)(C)C(=O)NC(C)(C)C(=O)NCCC(=O)NC2(CN(C)C)CCC2)cc1` [Compound 6896, (2S)-N-(1-{[(1S)-1-{[(1S)-1-({1-[(1-{[2-({1-[(dimethylamino)methyl]cyclobutyl}carbamoyl)ethyl]carbamoyl}-1-methylethyl)carbamoyl]-1-methylethyl}carbamoyl)-3-methylbutyl]carbamoyl}-3-methylbutyl]carbamoyl}-1-methylethyl)-2-[(2S)-3-(4-methoxyphenyl)-2-{[(2S)-1-(2-methyl-1,3-oxazole-4-carbonyl)pyrrolidin-2-yl]formamido}propanamido]-4-methylpentanamide] ({Oxazole4CO(2-Me)}-PY(Me)L[Aib]LL[Aib][Aib][βAla]-{NH(1-CH2NMe2-cBu)}), the IC50 at 68 h in data set [1] (rat myoblast L6 cells, read-out: Cytotox L6 IC50) was 8490 nM. Further, the IC50 was 1640 nM in data set [2] and 236 nM in data set [3].

Turning to `Cc1nc(C(=O)N2CCC[C@@H]2C(=O)N[C@H](CCC2CCCCC2)C(=O)N[C@H](CC(C)C)C(=O)NC(C)(C)C(=O)N[C@H](CC(C)C)C(=O)N[C@H](CC(C)C)C(=O)NC(C)(C)C(=O)NC(C)(C)C(=O)NCCC(=O)NC2(CN(C)C)CCC2)co1` [Compound 7050, (2R)-2-[(2R)-4-cyclohexyl-2-{[(2R)-1-(2-methyl-1,3-oxazole-4-carbonyl)pyrrolidin-2-yl]formamido}butanamido]-N-(1-{[(1R)-1-{[(1R)-1-({1-[(1-{[2-({1-[(dimethylamino)methyl]cyclobutyl}carbamoyl)ethyl]carbamoyl}-1-methylethyl)carbamoyl]-1-methylethyl}carbamoyl)-3-methylbutyl]carbamoyl}-3-methylbutyl]carbamoyl}-1-methylethyl)-4-methylpentanamide] ({Oxazole4CO(2-Me)}-[dP][d(hCha)][dL][Aib][dL][dL][Aib][Aib][βAla]-{NH(1-CH2NMe2-cBu)}), the IC50 at 68 h in data set [1] (rat) turned out to be 4970 nM. Moreover, the IC50 in data set [2] is 43.7 nM; in data set [3] (setting [6]), 5.1 nM.

For the molecule `CCCCCCCC[C@H](NC(=O)[C@@H]1CCCN1C(=O)c1coc(C)n1)C(=O)N[C@@H](CC(C)C)C(=O)NC(C)(C)C(=O)N[C@@H](CC(C)C)C(=O)N[C@@H](CC(C)C)C(=O)NC(C)(C)C(=O)NC(C)(C)C(=O)NCCC(=O)NCCNC` [Compound 7058, (2S)-2-{[(2S)-1-(2-methyl-1,3-oxazole-4-carbonyl)pyrrolidin-2-yl]formamido}-N-[(1S)-3-methyl-1-[(1-methyl-1-{[(1S)-3-methyl-1-{[(1S)-3-methyl-1-{[1-methyl-1-({1-methyl-1-[(2-{[2-(methylamino)ethyl]carbamoyl}ethyl)carbamoyl]ethyl}carbamoyl)ethyl]carbamoyl}butyl]carbamoyl}butyl]carbamoyl}ethyl)carbamoyl]butyl]decanamide] ({Oxazole4CO(2-Me)}-P[Gly(octyl)]L[Aib]LL[Aib][Aib][βAla]-NHCH2CH2NHMe), in data set [1] (rat), the IC50 at 68 h turned out to be 5040 nM. Further, the IC50 was determined as 2620 nM in data set [2] and 23.8 nM in data set [3] (setting [6]). In data set [4], the “MIC” value is 4 µg/mL (≈ 3.59 µM).

Regarding `CC(C)C[C@H](NC(=O)[C@H](Cc1nccs1)NC(=O)[C@@H]1CCCN1C(=O)c1ccc(F)cc1)C(=O)NC(C)(C)C(=O)N[C@@H](CC(C)C)C(=O)N[C@@H](CC(C)C)C(=O)NC(C)(C)C(=O)NC(C)(C)C(=O)NCCC(=O)NC1(CN(C)C)CCC1` [Compound 7842, (2S)-N-(1-{[(1S)-1-{[(1S)-1-({1-[(1-{[2-({1-[(dimethylamino)methyl]cyclobutyl}carbamoyl)ethyl]carbamoyl}-1-methylethyl)carbamoyl]-1-methylethyl}carbamoyl)-3-methylbutyl]carbamoyl}-3-methylbutyl]carbamoyl}-1-methylethyl)-2-[(2S)-2-{[(2S)-1-(4-fluorobenzoyl)pyrrolidin-2-yl]formamido}-3-(1,3-thiazol-2-yl)propanamido]-4-methylpentanamide] ({Benzoyl(4-F)}-P[Ala(thiazol-2-yl)]L[Aib]LL[Aib][Aib][βAla]-{NH(1-CH2NMe2-cBu)}), the “MIC” value in data set [5] is 32 µg/mL (≈ 27.4 µM).

For the molecule `COc1ccc(C[C@H](NC(=O)[C@@H]2CCCN2C(=O)c2ccc(F)cc2)C(=O)N[C@@H](CC(C)C)C(=O)NC(C)(C)C(=O)N[C@@H](CC(C)C)C(=O)N[C@@H](CC(C)C)C(=O)NC(C)(C)C(=O)NC(C)(C)C(=O)NCCC(=O)NC2(CN(C)C)CCC2)cc1Cl` [Compound 7846, (2S)-2-[(2S)-3-(3-chloro-4-methoxyphenyl)-2-{[(2S)-1-(4-fluorobenzoyl)pyrrolidin-2-yl]formamido}propanamido]-N-(1-{[(1S)-1-{[(1S)-1-({1-[(1-{[2-({1-[(dimethylamino)methyl]cyclobutyl}carbamoyl)ethyl]carbamoyl}-1-methylethyl)carbamoyl]-1-methylethyl}carbamoyl)-3-methylbutyl]carbamoyl}-3-methylbutyl]carbamoyl}-1-methylethyl)-4-methylpentanamide] ({Benzoyl(4-F)}-P[X14]L[Aib]LL[Aib][Aib][βAla]-{NH(1-CH2NMe2-cBu)}), the “MIC” value in data set [5] came to 4 µg/mL (≈ 3.27 µM).

Consider `CC(C)C[C@H](NC(=O)[C@H](Cc1nc2ccc(F)cc2s1)NC(=O)[C@@H]1CCCN1C(=O)c1ccc(F)cc1)C(=O)NC(C)(C)C(=O)N[C@@H](CC(C)C)C(=O)N[C@@H](CC(C)C)C(=O)NC(C)(C)C(=O)NC(C)(C)C(=O)NCCC(=O)NC1(CN(C)C)CCC1` [Compound 7848, (2S)-N-(1-{[(1S)-1-{[(1S)-1-({1-[(1-{[2-({1-[(dimethylamino)methyl]cyclobutyl}carbamoyl)ethyl]carbamoyl}-1-methylethyl)carbamoyl]-1-methylethyl}carbamoyl)-3-methylbutyl]carbamoyl}-3-methylbutyl]carbamoyl}-1-methylethyl)-2-[(2S)-3-(6-fluoro-1,3-benzothiazol-2-yl)-2-{[(2S)-1-(4-fluorobenzoyl)pyrrolidin-2-yl]formamido}propanamido]-4-methylpentanamide] ({Benzoyl(4-F)}-P[X13]L[Aib]LL[Aib][Aib][βAla]-{NH(1-CH2NMe2-cBu)}), for which the “MIC” value in data set [5] was determined as 4 µg/mL (≈ 3.24 µM).

For the origin of these results see patent US20240174714A1, “TREATMENT OF SKIN DISORDERS” (priority 2021, published 2024).
